Data taken from US20080199439A1, “IAP-binding cargo molecules and peptidomimetics for use in diagnostic and therapeutic methods” (priority 2003, published 2008).

Key:
recombinant XIAP-BIR3 = recombinant XIAP-BIR3 (Homo sapiens, UniProt P98170); settings: 550 nm peak of free AVPC-badan; binding to recombinant XIAP-BIR3
Excerpt: Without wishing to be bound by theory, upon binding to an IAP protein, the labeled IAP-binding cargo molecule packs into the groove of the BIR3 (SEQ ID NO: 15) causing a detectable shift in emission maximum and intensity when the environment of the fluorophore changes from water to the hydrophobic pocket of the protein.

HeLa cells [1] = settings: compared with Smac N-terminal tetrapeptide AVPI
Excerpt: This example illustrates the use of an labeled IAP-binding cargo molecule to bind with IAP within cells and tissues and inducing apoptosis.

HeLa cells [2] = system: HeLa cells; set-up: dose or concentration left out as unconfirmed; settings: 48 minutes, confocal microscopy
HeLa cells [3] = assay: Competition of AVPC-badan emission by AVPF in HeLa cells; assay type: cell-based; settings: AVPC-badan 0.1 mM, 100 equivalents AVPF, 30 minutes, emission 435-485 nm
Method: (§1) The emission between 435-485 nm after exposure of cells for 30 minutes is shown in each case. […] The emission between 385-470 nm and >505 nm after exposure of cells for 36 minutes is shown in each case;
(§2) Thus, the primary action of the IAP binding cargo molecule appears to be by binding to IAP proteins, thus releasing any activated caspases and thereby promoting apoptosis.

A498 cells = assay: Competition of AVPC-badan emission by AVPF in A498 cells; assay type: cell-based; settings: AVPC-badan 8 mM, 100 equivalents AVPF, 36 minutes, emission 385-470 nm and >505 nm
Method: as §1, §2

recombinant XIAP-BIR3, sequence (P98170 265-330 limits assumed): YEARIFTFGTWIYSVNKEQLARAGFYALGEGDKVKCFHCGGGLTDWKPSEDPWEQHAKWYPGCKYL

Compound | change of emission peak and intensity on binding (recombinant XIAP-BIR3) | induction of apoptosis (kinetics) (HeLa cells [1]) | intracellular localization of the peptide (HeLa cells [2]) | effect of competitor on intensity of AVPC-badan emission (HeLa cells [3]) | effect of competitor on intensity of AVPC-badan emission (A498 cells)
CC(N)C(=O)NC(C(=O)N1CCCC1C(=O)NC(CSCC(=O)c1ccc2cc(N(C)C)ccc2c1)C(=O)O)C(C)C (centres unmarked) [AVPC-badan] | shifts to 542 nm and increases in intensity | induced apoptosis with kinetics similar to those of the Smac N-terminal tetrapeptide AVPI | diffuse cytosolic distribution |  | 
AVPF: competitor peptide AVPF (SEQ ID NO: 19) |  |  |  | intensity of emission was found to diminish | intensity of emission was found to diminish
